From PubChem BioAssay AID449750 (Broad Institute, 2010)
Activity calls are given as the source filed them. How the calls were made is not given here.

Test: non-covalent RecA intein splicing inhibitors, dose response, biochemical, cell-free, fluorescence, secondary screen (AID 449750)

SMILES: CCOC(=O)c1c(NC(=O)CSc2nnc(-c3c[nH]c4ccccc34)n2CCOC)sc2c1CCCC2
- AC50: > 38 µM (inactive)

SMILES: C/C(CC(=O)Nc1ccccn1)=N\NC(=O)c1ccncc1
- AC50: 28.8 µM

SMILES: O=C(CSC1=NCCS1)Nc1nc(-c2ccccc2)cs1
- AC50: 30.5 µM

SMILES: COc1ccc(C2=NN(C(=O)/C=C/c3ccccc3)C(c3ccccc3)C2)c(OC(C)=O)c1 (stereo not given)
- AC50: 2.24 µM

SMILES: Cc1nn(-c2ccccc2)c(Cl)c1CN(C(=O)CCl)c1ccc(Cl)cc1
- AC50: 1.28 µM

SMILES: O=c1[nH]c(Nc2ccccc2)cc2cc(Br)ccc12
- AC50: 7 µM

SMILES: CCOc1cc(/C=C(\C#N)C(=O)Nc2cccc(C(=O)O)c2)cc(Br)c1OC(=O)c1ccc(OC)cc1
- AC50: 8.34 µM

SMILES: CSc1nnc(NC(=O)c2nc(S(=O)(=O)Cc3ccc(C)cc3)ncc2Cl)s1
- AC50: > 38 µM (inactive)

SMILES: COc1cccc(NC2=C(Cl)C(=O)OC2OC(=O)c2ccco2)c1 (stereo not given)
- AC50: > 38 µM (inactive)

SMILES: Cc1ccc(S(=O)(=O)/N=C2\C=C(Nc3cccc(C(=O)O)c3)C(=O)c3ccccc32)cc1
- AC50: 0.412 µM

SMILES: O=C(CCCN1C(=O)/C(=C/c2ccccc2)SC1=S)Nc1ccc(O)cc1
- AC50: > 38 µM (inactive)

SMILES: O=C(Sc1nnc(-c2ccccc2)o1)N1c2ccccc2Sc2ccccc21
- AC50: 11 µM

SMILES: Cc1nn(Cc2ccccc2)c2c1C(c1cccnc1)C(C#N)=C(N)O2 (stereo not given)
- AC50: > 38 µM (inactive)

SMILES: CCN(CC)S(=O)(=O)c1ccc(N2CCN(S(=O)(=O)c3ccccc3C#N)CC2)nc1
- AC50: > 38 µM (inactive)

SMILES: O=c1cc(C23CC4CC(CC(C4)C2)C3)[nH][nH]1
- AC50: > 38 µM (inactive)

SMILES: O=C(Nc1ccc(F)cc1)c1nn(-c2ccccc2)c(=O)cc1Cl
- AC50: 22.1 µM

SMILES: CC(C)OC(=O)CN1C(=O)C(=O)c2ccccc21
- AC50: 37.2 µM

SMILES: [O-]C1=N/[N+](=C/c2ccc(Cl)c(Cl)c2)CC1
- AC50: > 38 µM (inactive)

SMILES: C/C(CC(=O)Nc1cc(C)ccn1)=N\NC(=O)c1ccc(C)cc1
- AC50: > 38 µM (inactive)

SMILES: Cc1ccc2nc(N/N=C\c3ccc([N+](=O)[O-])o3)nc(-c3ccccc3)c2c1
- AC50: > 38 µM (inactive)

SMILES: O=S(=O)(c1ccccc1)c1ncc(C(F)(F)F)cc1Cl
- AC50: > 38 µM (inactive)

SMILES: CCc1[nH]nc2c1C(c1cccnc1)C(C#N)=C(N)O2 (stereo not given)
- AC50: > 38 µM (inactive)

SMILES: N=C(N)SCc1cn(-c2ccccc2)nc1-c1ccc(Br)cc1
- AC50: 16.2 µM

SMILES: O=C(CCl)Nc1cn(-c2ccccc2)nc1-c1ccc(F)cc1
- AC50: 2.82 µM

SMILES: Cc1cc(N/N=C/c2ccc(O)c(C)c2O)nc(-c2ccccc2O)n1
- AC50: > 38 µM (inactive)

SMILES: COc1ccc(NC(=S)NC(NC(=O)CCl)C(Cl)(Cl)Cl)c([N+](=O)[O-])c1 (stereo not given)
- AC50: 2.67 µM

SMILES: O=c1c(Cl)c(Cl)cnn1Cc1ccccc1Cl
- AC50: 36.8 µM

SMILES: Fc1ccc(Sc2nc(-c3ccccc3)nnc2C(F)(F)F)cc1
- AC50: > 38 µM (inactive)

SMILES: CCCc1[nH]nc2c1C(c1ccoc1)C(C#N)=C(N)O2 (stereo not given)
- AC50: > 38 µM (inactive)

SMILES: Cc1cc(OC(=O)c2ccccc2)n(CCC#N)n1
- AC50: 17.7 µM

SMILES: CCNC(=O)c1ccccc1-c1nc(-c2ccccc2)no1
- AC50: > 38 µM (inactive)

SMILES: CC(=O)NC1C(=O)N(CCN2CCOCC2)c2ccc(Br)cc21 (stereo not given)
- AC50: 18.1 µM

SMILES: CCOc1cc(/C=C(/C#N)C(=O)Nc2ccc(O)cc2)cc(Br)c1O
- AC50: > 38 µM (inactive)

SMILES: CCN1CCN(c2c(Cl)cccc2NC(=O)c2ccc3c(c2)OCCO3)CC1
- AC50: > 38 µM (inactive)

SMILES: COc1ccc2nc(SCC(=O)NN)cc(C)c2c1
- AC50: > 38 µM (inactive)

SMILES: CCOC(=O)c1c(C)[nH]c2c1-c1ccccc1C(=O)C2=O
- AC50: 5.39 µM

SMILES: O=C(CCCN1C(=O)/C(=C/c2cccs2)SC1=S)Nc1ccc(O)cc1
- AC50: > 38 µM (inactive)

SMILES: O=C1C(Cl)=C(N2CCCCC2)C(=O)N1c1ccccc1Cl
- AC50: > 38 µM (inactive)

SMILES: Cc1[nH]nc2c1C(c1ccc(-c3ccc(Cl)cc3)o1)C(C#N)=C(N)O2 (stereo not given)
- AC50: 39.1 µM

SMILES: O=C(CN1C(=O)S/C(=C\C=C\c2ccccc2)C1=O)Nc1ccccc1C(=O)O
- AC50: 14.1 µM

SMILES: COC(=O)c1cc(C)nc2c1C(=O)C(=O)C=C2N1CCOCC1
- AC50: 1.16 µM

SMILES: CCN(CC)c1ccc(/C=C2\C(=O)N(c3nnc(C)c(=O)[nH]3)N=C2C)cc1
- AC50: 5.67 µM

SMILES: Cc1cc(C(=O)CN2C(=O)c3ccccc3C2=O)c(C)n1C1CC1
- AC50: > 38 µM (inactive)

SMILES: C/C(CC(=O)Nc1ccccn1)=N\NC(=O)c1ccc(C)cc1
- AC50: > 38 µM (inactive)

SMILES: COc1ccc(N2C(=O)C(Cl)=C(Oc3cccc(OC)c3)C2=O)cc1
- AC50: > 38 µM (inactive)

SMILES: CN(CC(=O)Nc1ccc(N2CCOCC2)cc1)CC(=O)Nc1cccc(C#N)c1
- AC50: > 38 µM (inactive)

SMILES: Cc1[nH][nH]c(=O)c1C(c1cc([N+](=O)[O-])ccc1O)c1c(C)[nH][nH]c1=O
- AC50: 14.6 µM

SMILES: Cn1c(=O)c([N+](=O)[O-])c(-n2cnc3ccccc32)c2ccccc21
- AC50: > 38 µM (inactive)

SMILES: O=S(=O)(Nc1cc2nc3ccccc3nc2n1Cc1ccccc1)c1ccc(Cl)cc1
- AC50: 5.18 µM

SMILES: CCc1ccc(NC(=O)CSc2ccc(-c3sc(C)nc3C)nn2)cc1
- AC50: > 38 µM (inactive)

SMILES: CCCCOc1ccc(C2C3CN(C(=O)OCC)CC=C3C(C#N)=C(N)C2(C#N)C#N)cc1OC (stereo not given)
- AC50: > 38 µM (inactive)

SMILES: CC(C)(C)C1CCc2sc(C(=O)NNC(=O)CCl)cc2C1 (stereo not given)
- AC50: 1.94 µM

SMILES: COc1cc(C2(c3ccc(O)c(OC)c3)C(=O)Nc3c(C)cc(Br)cc32)ccc1O
- AC50: 9.32 µM

SMILES: COc1ccc(Nc2ccc3c(c2)=NC2(CCCCC2)[N+]=3[O-])cc1
- AC50: 15 µM

SMILES: O=C(CCl)Nc1cccc(Oc2ccccc2)c1
- AC50: 6.15 µM

SMILES: CCc1ccc(NC(=O)C(=O)N/N=C(\C)CC(=O)Nc2ccccn2)cc1
- AC50: > 38 µM (inactive)

SMILES: CN1c2ccccc2C(C)(C)C12C=Nc1c(ccc3ccccc13)O2 (stereo not given)
- AC50: 21.2 µM

SMILES: O=c1cc(-c2cccc3ccccc23)[nH][nH]1
- AC50: 12.1 µM

SMILES: COc1ccc(N(C(=O)CCl)C(C(=O)NCCc2ccccc2)c2cccs2)cc1Cl (stereo not given)
- AC50: 0.672 µM

SMILES: O=C(CCl)N1N=C(c2cccs2)CC1c1ccco1 (stereo not given)
- AC50: 5.44 µM

SMILES: Cc1nc2c(=O)n(C)c(=O)nc-2n(C)n1
- AC50: 0.0855 µM

SMILES: N#CC(C#N)C(c1ccsc1)c1c(-c2ccccc2)[nH][nH]c1=O (stereo not given)
- AC50: 37.8 µM

SMILES: Cc1[nH][nH]c(=O)c1C(c1ccc(F)cc1)c1c(C)[nH][nH]c1=O
- AC50: 11.9 µM

SMILES: CS(=O)(=O)c1ccc(C(=O)OCC(=O)NC23CC4CC(CC(C4)C2)C3)cc1[N+](=O)[O-]
- AC50: > 38 µM (inactive)

SMILES: COC(=O)[C@@H]1C[C@]2(OC(=O)c3ccccc3)C=CC(=O)C[C@@H]2N1C(=O)OCc1ccccc1
- AC50: 24.5 µM

SMILES: O=C(Cc1ccccc1)c1c[nH]c(C(=O)C(Cl)(Cl)Cl)c1
- AC50: 38.1 µM

SMILES: CCCc1nn(C)c2c1C(c1ccncc1)C(C#N)=C(N)O2 (stereo not given)
- AC50: > 38 µM (inactive)

SMILES: Cc1[nH]n(-c2ccccc2)c(=O)c1/C=N/NC(=O)c1ccc(O)cc1O
- AC50: > 38 µM (inactive)

SMILES: COC(=O)COc1c(Cl)cc(C(c2c(C)[nH][nH]c2=O)c2c(C)[nH][nH]c2=O)cc1OC
- AC50: 27.8 µM

SMILES: N#CCCn1[nH]c(-c2ccccc2)cc1=O
- AC50: 8.16 µM

SMILES: O=C1Cc2ccccc2C(=O)N1Cc1ccccc1
- AC50: > 38 µM (inactive)

SMILES: O=c1c2ccccc2nc2n1CCS2(=O)=O
- AC50: > 38 µM (inactive)

SMILES: Cc1cc(C)cc(S(=O)(=O)c2cnc3ccccc3n2)c1
- AC50: > 38 µM (inactive)

SMILES: O=C(CCl)N(C/C=C/c1ccccc1)c1ccc2c(c1)OCCO2
- AC50: 1.12 µM

SMILES: Cc1[nH]n(-c2ccccc2)c(=O)c1C(C[N+](=O)[O-])c1ccc(Br)cc1 (stereo not given)
- AC50: 11.1 µM
